Data on one compound can be found in US6380267B1, “Composition and method for decreasing neurologic symptomatology” (priority 1999, dated 2002).

SMILES strings stand for the structures.

Assay type in all cases: in vivo, human
Series [1] concerns patient who had Parkinson's Disease and severe dyskinesia. The series can be described thus: Treatment of a Parkinson's Disease patient with severe dyskinesia with sildenafil (Example I). Conditions: one patient. As to the method: A patient who had Parkinson's Disease for twelve years and who suffered from severe dyskinesia affecting all their extremities and their head and neck for five years was treated with the method for decreasing neurologic symptomatology according to the present invention. […] The patient was initially treated with 50 mg of sildenafil per day.

In series [2] the test system is patient who had Parkinson's Disease with tremor at rest and gait disturbance. The series can be described thus: Treatment of a Parkinson's Disease patient with tremor at rest and gait disturbance with sildenafil (Example II). Particulars: one patient. The procedure:
A patient who had Parkinson's Disease for fifteen years and who suffered from tremor at rest and gait disturbance was treated with the method for decreasing neurologic symptomatology according to the present invention. […] The patient was initially treated with 25 mg of sildenafil per day.

The subject of series [3] is patients with Parkinson's Disease and dyskinesias. The series can be described thus: Treatment of seven patients with Parkinson's Disease and dyskinesias with sildenafil (Example III).
Experimental: Seven additional patients with Parkinson's Disease and dyskinesias were treated with sildenafil at a dose of 25 mg per day in addition to their usual Parkinson's Disease medications. The patents were all Caucasian and ranged in age from between 55 to 70 years. Four of the patients were men and three were women.
The mark [4] stands for this setting: 25 mg sildenafil per day, after five months of treatment, on levodopa.

As for `CCCc1nn(C)c2c(=O)[nH]c(-c3cc(S(=O)(=O)N4CCN(C)CC4)ccc3OCC)nc12` [sildenafil], the dyskinesias during treatment result in series [1] (50 mg sildenafil per day initially, on levodopa) is listed as “significantly reduced”. Also, the “signs and symptoms of Parkinson's Disease” value in series [1] (after more than one year of treatment, sildenafil decreased to 25 mg, levodopa 300-400 mg per day) is listed as “significantly improved”. Also, in series [2] (setting [4]), the gait disturbance entry is “improved significantly” and the tremor entry is reported as “ceased”. Moreover, the “signs and symptoms of Parkinson's Disease” value in series [2] (after more than seven months of treatment, sildenafil 25 mg three times per day, levodopa 250 mg per day) is “significantly improved”. In series [3] (25 mg per day), the “patients reporting facial flushing” value is “one”, the “patients with any significant side effects of sildenafil treatment” value is “None” and the “patients with any worsening of their Parkinson's Disease symptoms” value was “None”. For the same compound, the “patients with significant improvement in their dyskinesias” value in series [3] (25 mg per day in addition to usual Parkinson's Disease medications) was “Five of the seven”.
